Measurements from patent publication US20090138208A1, “IMMUNOGLOBULIN G BINDING POCKET” (GE HEALTHCARE BIO-SCIENCES AB, priority 2002, published 2009).
Counter-ions that a name gives are not always drawn.

Target: human Fab of κ-type (Homo sapiens, UniProt P01834+P01857)
Assay: STD NMR screening (1D saturation transfer difference) for binding to antibody
Design: key: 0 no; 1 weak; 2 strong signal
Details: 0.5 mM ligand; for NMR signal conc 1: 500 nM antibody, 298 K; for NMR signal conc 2: 100 nM antibody; for NMR signal conc 3: 20 nM antibody
Procedure: All NMR experiments were performed at 298 K on a Bruker Avance 500 MHz spectrometer. The 1D saturation transfer difference method (STD NMR) was used as screening assay (Mayer M. and Meyer B. 1999. Characterization of Ligand Binding by Saturation Transfer Difference NMR Spectroscopy. Angew. Chem., Int. Ed. 38: 1784-1788) using several antibody concentrations in order to differentiate between compounds with different binding strength (Peng J. W., Lepre C. A., Fejzo J., Abdul-Manan N. and Moore J. M. 2001. Nuclear Magnetic Resonance-Based Approaches for Lead Generation in Drug Discovery. Methods in Enzymology. 338: 202-230). The antibody used was a human Fab of κ-type. In all cases ligands were tested one-by-one. On-resonance irradiation was set at 0 ppm and off-resonance irradiation was set at −40 ppm. Irradiation time in each scan was 2 s and 16 K data points were collected with 1024 scans in total. Compounds for testing were dissolved in DMSOd6 to a concentration of 50 mM and 5 μL of the concentrated ligand solution was added to 495 μL buffer solution. The samples thus consisted of 0.5 mM ligand, 20 mM phosphate buffer, 100 mM NaCl and […] in D2O at pD 7.5, uncorrected reading on pH-meter.
Compounds were initially tested for binding with 0.5 μM antibody. Interesting ligands were further tested with protein concentrations of 100 or 20 nM. A one-dimensional ^1H-spectrum was acquired first and subsequently a saturation transfer difference (STD) spectrum was acquired. Each analysis took 60 minutes on the spectrometer. […] The analysis was setup for automation so that several samples could be analysed over night (usually 10-15 samples/night).
As many as 46 of the virtual screening hits were tested with NMR according to the procedure described above. The results from NMR screening together with additional compound data are compiled in Table 1 below. In total 24 compounds gave a positive result in the first round with the highest antibody concentration (500 nM). These 24 compounds were subjected to a second round with an antibody concentration of 100 nM. The 4 compounds showing the strongest signal in the second round were tested for binding in a third round with 20 nM antibody. Three of the compounds in the third round gave a positive result and where thus designated as the strongest binders to the antibody out of the 46 tested compounds.

human Fab of κ-type, sequence (P01857 with tags, fused parts or gaps, other chains not shown): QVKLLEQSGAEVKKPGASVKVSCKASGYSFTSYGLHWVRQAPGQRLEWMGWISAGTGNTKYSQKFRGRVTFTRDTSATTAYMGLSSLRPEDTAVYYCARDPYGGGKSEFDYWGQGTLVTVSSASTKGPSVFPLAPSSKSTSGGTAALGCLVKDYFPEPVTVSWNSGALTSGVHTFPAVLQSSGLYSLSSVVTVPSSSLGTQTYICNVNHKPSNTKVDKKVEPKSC

| Compound | NMR signal conc 1 | NMR signal conc 2 | NMR signal conc 3 |
| --- | --- | --- | --- |
| O=C(c1ccccn1)C(O)c1ccccn1 (stereo not drawn) [AB_0000510, alpha-pyridoin] | 0 |  |  |
| CC1=NN(c2cccc(Cl)c2)C(=O)C1 [AB_0000530, 1-(3-chlorophenyl)-3-methyl-2-pyrazolin-5-one] | 0 |  |  |
| O=C1C(=O)N(c2ccccc2)C(=O)N1c1ccccc1 [AB_0000540, 1,3-diphenylparabanic acid] | 0 |  |  |
| Cc1cc(C)nc(SCC(=O)Nc2ccc(F)c(Cl)c2)n1 [AB_0000580, n1-(3-chloro-4-fluorophenyl)-2-[(4,6-dimethylpyrimidin-2-yl)thio]acetamide] | 1 | 0 |  |
| c1ccc(-c2nnc3ccccc3n2)cc1 [AB_0000600, 3-phenyl-1,2,4-benzotriazine] | 1 | 1 |  |
| O=C1c2ccncc2C(=O)N1c1ccc(Cl)cc1 [AB_0000610, 2-(4-chlorophenyl)-2,3-dihydro-1h-pyrrolo[3,4-c]pyridine-1,3-dione] | 0 |  |  |
| O=C(Cc1ncon1)Nc1ccc(F)c(F)c1F [AB_0000630, n1-(2,3,4-trifluorophenyl)-2-(1,2,4-oxadiazol-3-yl)acetamide] | 0 |  |  |
| COC(=O)NC(=O)c1nc(-c2ccccc2)c(C)o1 [AB_0000670, methyl n-[(5-methyl-4-phenyl-1,3-oxazol-2-yl)carbonyl]carbamate] | 2 | 0 |  |
| O=C(Cc1ncon1)Nc1ccc(F)cc1F [AB_0000690, n1-(2,4-difluorophenyl)-2-(1,2,4-oxadiazol-3-yl)acetamide] | 0 |  |  |
| c1ccc(-c2nnc(-c3ccccn3)nn2)nc1 [AB_0000700, 3,6-di-2-pyridyl-1,2,4,5-tetrazine] | 0 |  |  |
| O=C1C(=Cc2ccccc2)C(=O)c2ccccc21 [AB_0000730, 2-benzylidene-1,3-indandione] | 0 |  |  |
| O=C(Nc1ccc(F)cc1)Oc1noc(-c2ccccc2)n1 [AB_0000740, 5-phenyl-1,2,4-oxadiazol-3-yl n-(4-fluorophenyl)carbamate] | 0 |  |  |
| CC1(C)CC(=O)c2sc(NC(=O)c3cccnc3)nc2C1 [AB_0000750, n-(5,5-dimethyl-7-oxo-4,5,6,7-tetrahydro-benzothiazol-2-yl)-nicotinamide] | 0 |  |  |
| Sc1nnc(-c2csc(-c3ccccc3)n2)o1 [AB_0000760, 5-(2-phenyl-1,3-thiazol-4-yl)-1,3,4-oxadiazol-2-ylhydrosulfide] | 1 | 0 |  |
| O=C(CC1OC(=O)c2ccccc21)c1ccccn1 (centres unmarked) [AB_0000790, 3-[2-oxo-2-(2-pyridyl)ethyl]-1,3-dihydroisobenzofuran-1-one] | 0 |  |  |
| OCC(Oc1ccccc1)c1ccccc1 (centres unmarked) [AB_0000810, 2-phenoxy-2-phenyl-1-ethanol] | 2 | 1 |  |
| O=C1SC(Br)C(=O)N1c1ccccc1 (centres unmarked) [AB_0000880, 5-bromo-3-phenyl-thiazolidine-2,4-dione] | 0 |  |  |
| O=C(c1ccc2ccccc2c1)n1ccnc1 [AB_0000900, 1-(2-naphthoyl)imidazole] | 0 |  |  |
| COc1ccc(CC(C)=O)cc1Br [AB_0000910, 3-bromo-4-methoxyphenylacetone] | 2 | 2 | 0 |
| O=C1C=C(Cl)C(=O)N1c1ccccc1 [AB_0000930, 3-chloro-1-phenyl-pyrrole-2,5-dione] | 0 |  |  |
| CCCCc1c(O)nc2ccccn2c1=O [AB_0000990, 3-butyl-2-hydroxy-4h-pyrido[1,2-a]pyrimidin-4-one] | 0 |  |  |
| OC(CNCc1ccccc1)C(F)(F)F (centres unmarked) [AB_0001000, 3-(benzylamino)-1,1,1-trifluoro-2-propanol] | 1 | 0 |  |
| N#CCc1ccc(C(=O)c2ccccc2F)s1 [AB_0001010, 2-[5-(2-fluorobenzoyl)-2-thienyl]acetonitrile] | 2 | 2 | 2 |

| Compound | NMR signal conc 1 | NMR signal conc 2 | NMR signal conc 3 |
| --- | --- | --- | --- |
| Fc1cc(F)cc(Cc2nc(-c3cccs3)no2)c1 [AB_0001020, 5-(3,5-difluorobenzyl)-3-(2-thienyl)-1,2,4-oxadiazole] | 1 | 0 |  |
| O=Cc1cccc(C(F)(F)F)c1Cl [AB_0001030, 2-chloro-3-(trifluoromethyl)benzaldehyde] | 1 | 0 |  |
| CC(C)=CC1=C(O)C(=O)c2ccccc2C1=O [AB_0001040, 2-hydroxy-3-(2-methyl-1-propenyl)-1,4-naphthoquinone] | 1 | 1 |  |
| N=c1sccn1CC(=O)c1ccc2ccccc2c1 [AB_0001060, 2-(2-imino-thiazol-3-yl)-1-naphthalen-2-yl-ethanone] | 2 | 0 |  |
| CCn1ccnc1CC1COc2ccccc2O1 (centres unmarked) [AB_0001070, imiloxan hydrochloride] | 1 | 1 |  |
| CC1CN=C(SCc2ccccc2)N1.Cl (centres unmarked) [AB_0001080, 2-(benzylthio)-5-methyl-4,5-dihydro-1h-imidazol-3-ium chloride] | 0 |  |  |
| O=C1C=CC(=O)N1c1cccc(Cl)c1 [AB_0001090, n-(3-chlorophenyl)-maleimide] | 1 | 0 |  |
| CCOC(=O)c1c[nH]c2ccccc2c1=O [AB_0001100, ethyl 4-oxo-1,4-dihydroquinoline-3-carboxylate] | 0 |  |  |
| CSCCNC(=O)c1nc2ccccc2c(=O)n1N [AB_0001130, 3-amino-n-[2-(methylthio)ethyl]-4-oxo-3,4-dihydroquinazoline-2-carboxamide] | 0 |  |  |
| Clc1ccc(COn2ccnc2)cc1Cl [AB_0001150, 1-[(3,4-dichlorobenzyl)oxy]-1h-imidazole] | 2 | 0 |  |
| OC(CNCc1ccc(Cl)cc1Cl)C(F)(F)F (centres unmarked) [AB_0001170, 3-[(2,4-dichlorobenzyl)amino]-1,1,1-trifluoro-2-propanol] | 0 |  |  |
| O=C(O)c1ccnn(-c2ccccc2)c1=O [AB_0001180, 3-oxo-2-phenyl-2,3-dihydro-4-pyridazinecarboxylic acid] | 0 |  |  |
| c1ccc(CCn2cc(-c3ccncc3)cn2)cc1 [AB_0001190, 4-[1-(2-phenylethyl)-(1h)-pyrazol-4-yl]pyridine] | 2 | 0 |  |
| COC(=O)c1ccc2ccccc2c1O [AB_0001200, methyl 1-hydroxy-2-naphthoate] | 1 | 0 |  |
| FC(F)(F)c1cccc(-n2ccnc2)c1 [AB_0001220, 1-(3-trifluoromethylphenyl)imidazole] | 2 | 0 |  |
| O=C(COc1ccc2ccccc2c1)ON1C(=O)CCC1=O [AB_0001230, (2-naphthoxy)acetic acid, n-hydroxysuccinimide ester] | 0 |  |  |
| COC(=O)C1OC1c1cc(Cl)ccc1OC (centres unmarked) [AB_0001240, methyl 3-(5-chloro-2-methoxyphenyl)-2,3-epoxypropionate] | 1 | 1 |  |
| CN(C)C(=O)N(C)c1ccc(Cl)c(Cl)c1 [AB_0001250, 1-(3,4-dichlorophenyl)-1,3,3-trimethylurea] | 2 | 2 | 1 |
| S=C(Oc1ccccn1)c1csc(C2COc3ccccc3O2)n1 (centres unmarked) [AB_0001260, 2-pyridyl 2-(2,3-dihydro-1,4-benzodioxin-2-yl)-1,3-thiazole-4-carbothioate] | 0 |  |  |
| OC(CNCc1ccc(Cl)cc1)CSc1ccccc1 (centres unmarked) [AB_0001270, 1-[(4-chlorobenzyl)amino]-3-(phenylthio)propan-2-ol] | 1 | 0 |  |
| Clc1ccc(OCc2noc(CSc3ccccn3)n2)cc1 [AB_0001290, 3-[(4-chlorophenoxy)methyl]-5-[(2-pyridylthio)methyl]-1,2,4-oxadiazole] | 2 | 1 |  |
| O=C(c1cccs1)c1cnc2ccccn2c1=O [AB_0001300, 3-(2-thienylcarbonyl)-4h-pyrido[1,2-a]pyrimidin-4-one] | 1 | 0 |  |
